Legend:
[1] = target: T1, Gastrin/cholecystokinin type B receptor (Rattus norvegicus) (UniProt P30553); assay: Evaluated for Cholecystokinin type B receptor antagonistic activity in isolated lumen-perfused immature rat stomach; format: functional, tissue-based
T1 sequence (whole entry): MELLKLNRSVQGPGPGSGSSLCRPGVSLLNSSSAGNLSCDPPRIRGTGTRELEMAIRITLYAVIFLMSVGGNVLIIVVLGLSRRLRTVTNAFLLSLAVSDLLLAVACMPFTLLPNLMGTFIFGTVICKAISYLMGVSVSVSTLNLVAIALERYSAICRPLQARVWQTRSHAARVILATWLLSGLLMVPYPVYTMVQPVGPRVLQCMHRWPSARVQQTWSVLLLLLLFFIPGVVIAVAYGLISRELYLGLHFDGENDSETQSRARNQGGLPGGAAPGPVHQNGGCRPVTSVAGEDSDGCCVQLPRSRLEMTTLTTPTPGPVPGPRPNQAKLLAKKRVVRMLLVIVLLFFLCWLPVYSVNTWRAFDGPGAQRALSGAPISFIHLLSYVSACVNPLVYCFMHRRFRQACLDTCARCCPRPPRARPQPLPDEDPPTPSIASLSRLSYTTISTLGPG

[2] = target: T2, Gastrin/cholecystokinin type B receptor (Mus musculus, UniProt P56481); assay: Evaluated for Cholecystokinin type B receptor antagonistic activity in which 20 pM [125I]BH-CCK-8S was used to label CCKB/gastrin binding sites in mouse cortical homogenates
T2 sequence (P56481 whole entry): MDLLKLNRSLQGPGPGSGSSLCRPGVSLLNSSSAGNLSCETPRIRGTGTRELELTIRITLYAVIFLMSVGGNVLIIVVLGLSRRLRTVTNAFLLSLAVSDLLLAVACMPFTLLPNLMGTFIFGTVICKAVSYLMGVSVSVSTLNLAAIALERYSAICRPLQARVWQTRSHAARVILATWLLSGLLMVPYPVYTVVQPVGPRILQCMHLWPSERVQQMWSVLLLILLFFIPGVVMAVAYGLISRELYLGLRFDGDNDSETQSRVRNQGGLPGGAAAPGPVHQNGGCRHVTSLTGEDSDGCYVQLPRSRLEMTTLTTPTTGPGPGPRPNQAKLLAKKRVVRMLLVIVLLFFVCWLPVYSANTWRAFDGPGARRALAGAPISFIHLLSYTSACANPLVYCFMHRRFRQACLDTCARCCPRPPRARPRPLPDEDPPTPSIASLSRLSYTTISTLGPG

| Compound | pKB [1] | IC50 [2] [nM] |
| --- | --- | --- |
| O=C(O)c1cc(NC(=O)C2Cc3ccccc3CN2C(=O)c2cc3[nH]cnc3cc2C(=O)NCC23CC4CC(CC(C4)C2)C3)cc(C(=O)O)c1 (stereo not given) | 7.64 | 178 |
| O=C(O)c1cc(NC(=O)[C@H](Cc2ccccc2)NC(=O)c2cc3[nH]cnc3cc2C(=O)NCC23CC4CC(CC(C4)C2)C3)cc(C(=O)O)c1 | 9.08 | 5.25 |

More lines, now with the values ahead:

| pKB [1] | IC50 [2] [nM] | Compound |
| --- | --- | --- |
| 9.13 | 5.01 | O=C(O)c1cc(NC(=O)C2Cc3ccccc3CCCCN2C(=O)c2cc3[nH]cnc3cc2C(=O)NCC23CC4CC(CC(C4)C2)C3)cc(C(=O)O)c1 (stereo not given) |
| 7.93 | 224 | O=C(O)c1cc(NC(=O)C2Cc3ccccc3CCCN2C(=O)c2cc3[nH]cnc3cc2C(=O)NCC23CC4CC(CC(C4)C2)C3)cc(C(=O)O)c1 (stereo not given) |
| 7.66 | 234 | O=C(O)c1cc(NC(=O)C2Cc3ccccc3CCN2C(=O)c2cc3[nH]cnc3cc2C(=O)NCC23CC4CC(CC(C4)C2)C3)cc(C(=O)O)c1 (stereo not given) |

Reference: ChEMBL document CHEMBL1129870, “INCORPORATION OF CONFORMATIONALLY CONSTRAINED PHENYLALANINE DERIVATIVES TIC, SIC, HIC AND NIC INTO A CHOLECYSTOKININ-B/GASTRIN RECEPTOR ANTAGONIST” (Bioorg Med Chem Lett, 1997)
